Reference: ChEMBL document CHEMBL1201862, “PubChem BioAssay data set” (2004)
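Each compound was tested at five concentrations against cells in 96-well plates for 48 hours. GI50: concentration for 50% inhibition of growth.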 Active and inactive are the calls of the source. Rule as the data show it: active = GI50 up to about 1.1 µM and inactive = higher.

What was measured:
Assay in all cases: NCI tumour cell line growth inhibition, 48 h
Hs-578T = tested on: Hs-578T
NCI-H23 = tested on: NCI-H23
MOLT-4 = tested on: MOLT-4
OVCAR-8 = tested on: OVCAR-8
HOP-92 = tested on: HOP-92
UACC-62 = tested on: UACC-62
RXF 393 = tested on: RXF 393
M14 = tested on: M14
COLO 205 = tested on: COLO 205
IGROV-1 = tested on: IGROV-1
BT-549 = tested on: BT-549
UO-31 = tested on: UO-31
TK-10 = tested on: TK-10
RPMI-8226 = tested on: RPMI-8226
CCRF-CEM = tested on: CCRF-CEM
OVCAR-3 = tested on: OVCAR-3
LOX IMVI = tested on: LOX IMVI
NCI-H226 = tested on: NCI-H226
HT-29 = tested on: HT-29
SNB-19 = tested on: SNB-19

Which results are given for `O=C(O)c1cc(CCc2cc(O)ccc2O)ccc1O`?
GI50 (Hs-578T): > 100 µM (inactive); GI50 (NCI-H23): > 100 µM (inactive); GI50 (MOLT-4): 56.6 µM (inactive); GI50 (OVCAR-8): > 100 µM (inactive); GI50 (HOP-92): > 100 µM (inactive); GI50 (UACC-62): > 100 µM (inactive); GI50 (RXF 393): > 100 µM (inactive); GI50 (M14): > 100 µM (inactive); GI50 (COLO 205): > 100 µM (inactive); GI50 (IGROV-1): > 100 µM (inactive); GI50 (BT-549): > 100 µM (inactive); GI50 (UO-31): > 100 µM (inactive); GI50 (TK-10): > 100 µM (inactive); GI50 (RPMI-8226): > 100 µM (inactive); GI50 (CCRF-CEM): 26.9 µM (inactive); GI50 (OVCAR-3): > 100 µM (inactive); GI50 (LOX IMVI): 32.1 µM (inactive); GI50 (NCI-H226): > 100 µM (inactive); GI50 (HT-29): > 100 µM (inactive)

How did the GI50 (Hs-578T) turn out when `O=C(NCCCNC(=O)c1ccc2c(O)c(O)ccc2c1)c1ccc2c(O)c(O)ccc2c1` was run?
Its GI50 is 18.5 µM (inactive).

What about the GI50 (NCI-H23) of the same molecule?
The GI50 was 22.1 µM (inactive).

And the GI50 (MOLT-4)?
The GI50 was 20.4 µM (inactive).

And the GI50 (OVCAR-8)?
The GI50 was 35.6 µM (inactive).

What about the GI50 (HOP-92) of the same molecule?
The GI50 was 31 µM (inactive).

And the GI50 (UACC-62)?
The GI50 was 29.9 µM (inactive).

And the GI50 (RXF 393)?
Its GI50 is 27.3 µM (inactive).

What about the GI50 (M14) of the same molecule?
Its GI50 is 26.6 µM (inactive).

What about the GI50 (COLO 205) of the same molecule?
The GI50 was 22.9 µM (inactive).

And the GI50 (IGROV-1)?
The GI50 was 18.8 µM (inactive).

And the GI50 (BT-549)?
The GI50 was 18.7 µM (inactive).

And the GI50 (UO-31)?
The GI50 was 26.6 µM (inactive).

And the GI50 (TK-10)?
The GI50 was 43.8 µM (inactive).

What about the GI50 (RPMI-8226) of the same molecule?
Its GI50 is 39.7 µM (inactive).

What about the GI50 (CCRF-CEM) of the same molecule?
The GI50 was 5.18 µM (inactive).

What about the GI50 (OVCAR-3) of the same molecule?
Its GI50 is 22.8 µM (inactive).

And the GI50 (SNB-19)?
Its GI50 is 25.7 µM (inactive).

And the GI50 (LOX IMVI)?
Its GI50 is 9.57 µM (inactive).

What about the GI50 (NCI-H226) of the same molecule?
The GI50 was 63 µM (inactive).

And the GI50 (HT-29)?
The GI50 was 26.2 µM (inactive).

What does the source list for `CC[N+](CC)(CCNCC(N)=O)CC(N)=O`?
GI50 (Hs-578T): > 10 µM (inactive); GI50 (NCI-H23): > 10 µM (inactive); GI50 (MOLT-4): > 10 µM (inactive); GI50 (OVCAR-8): > 10 µM (inactive); GI50 (HOP-92): > 10 µM (inactive); GI50 (UACC-62): > 10 µM (inactive); GI50 (RXF 393): > 10 µM (inactive); GI50 (M14): > 10 µM (inactive); GI50 (COLO 205): > 10 µM (inactive); GI50 (IGROV-1): > 10 µM (inactive); GI50 (BT-549): > 10 µM (inactive); GI50 (UO-31): > 10 µM (inactive); GI50 (TK-10): > 10 µM (inactive); GI50 (RPMI-8226): > 10 µM (inactive); GI50 (CCRF-CEM): > 10 µM (inactive); GI50 (OVCAR-3): > 10 µM (inactive); GI50 (SNB-19): > 10 µM (inactive); GI50 (LOX IMVI): > 10 µM (inactive); GI50 (NCI-H226): > 10 µM (inactive); GI50 (HT-29): > 10 µM (inactive)

For `CCCCCCCCCCCCCC(=O)N(CCCCCCCCC)CC(O)C(O)C(OC1OC(CO)C(O)C(O)C1O)C(O)CO` (stereo unspecified), which GI50 (Hs-578T) is on record?
The GI50 was 22.5 µM (inactive).

What about the GI50 (NCI-H23) of the same molecule?
The GI50 was 19.7 µM (inactive).

What about the GI50 (MOLT-4) of the same molecule?
Its GI50 is 24.4 µM (inactive).

And the GI50 (OVCAR-8)?
The GI50 was 20.8 µM (inactive).

And the GI50 (HOP-92)?
Its GI50 is 17.3 µM (inactive).

What about the GI50 (UACC-62) of the same molecule?
Its GI50 is 20.7 µM (inactive).

What about the GI50 (RXF 393) of the same molecule?
Its GI50 is 24.3 µM (inactive).

What about the GI50 (M14) of the same molecule?
Its GI50 is 20.1 µM (inactive).

And the GI50 (COLO 205)?
Its GI50 is 20.5 µM (inactive).

And the GI50 (IGROV-1)?
Its GI50 is 20.2 µM (inactive).

What about the GI50 (BT-549) of the same molecule?
The GI50 was 22.9 µM (inactive).

And the GI50 (UO-31)?
The GI50 was 19.1 µM (inactive).

What about the GI50 (TK-10) of the same molecule?
Its GI50 is 18.6 µM (inactive).

And the GI50 (RPMI-8226)?
The GI50 was 29.9 µM (inactive).

What about the GI50 (CCRF-CEM) of the same molecule?
The GI50 was 26.2 µM (inactive).

What about the GI50 (OVCAR-3) of the same molecule?
Its GI50 is 26.6 µM (inactive).

And the GI50 (SNB-19)?
The GI50 was 24.5 µM (inactive).

And the GI50 (LOX IMVI)?
Its GI50 is 19.5 µM (inactive).

And the GI50 (NCI-H226)?
The GI50 was 18.7 µM (inactive).

What about the GI50 (HT-29) of the same molecule?
The GI50 was 18.5 µM (inactive).

With `Oc1ccc(Cl)cc1C1=NC(NCN2CCN(CNC3=NC(c4ccccc4)CC(c4cc(Cl)ccc4O)=N3)CC2)=NC(c2ccccc2)C1` (stereo unspecified) as the molecule, how does the GI50 (Hs-578T) read?
The GI50 was 55.7 µM (inactive).

What about the GI50 (NCI-H23) of the same molecule?
The GI50 was 46.6 µM (inactive).

What about the GI50 (OVCAR-8) of the same molecule?
Its GI50 is 31.8 µM (inactive).

And the GI50 (HOP-92)?
The GI50 was 58.2 µM (inactive).

And the GI50 (UACC-62)?
The GI50 was 45 µM (inactive).

What about the GI50 (RXF 393) of the same molecule?
Its GI50 is 22 µM (inactive).

What about the GI50 (M14) of the same molecule?
The GI50 was 58.6 µM (inactive).

What about the GI50 (COLO 205) of the same molecule?
Its GI50 is 47.4 µM (inactive).

What about the GI50 (IGROV-1) of the same molecule?
Its GI50 is 34.4 µM (inactive).

And the GI50 (BT-549)?
Its GI50 is 52.2 µM (inactive).

And the GI50 (UO-31)?
Its GI50 is 37.3 µM (inactive).

What about the GI50 (TK-10) of the same molecule?
Its GI50 is 48.8 µM (inactive).

And the GI50 (RPMI-8226)?
The GI50 was 18.4 µM (inactive).

And the GI50 (CCRF-CEM)?
The GI50 was 21.5 µM (inactive).

And the GI50 (OVCAR-3)?
Its GI50 is 28.8 µM (inactive).

What about the GI50 (SNB-19) of the same molecule?
The GI50 was 41.6 µM (inactive).

And the GI50 (LOX IMVI)?
The GI50 was 40.6 µM (inactive).

And the GI50 (NCI-H226)?
The GI50 was 53.8 µM (inactive).

And the GI50 (HT-29)?
Its GI50 is 36.5 µM (inactive).

Which results are given for `COc1ccc(/N=C(/SS/C(=N/c2ccc(OC)cc2)c2ccc([N+](=O)[O-])o2)c2ccc([N+](=O)[O-])o2)cc1`?
GI50 (Hs-578T): 2.19 µM (inactive); GI50 (NCI-H23): 1.45 µM (inactive); GI50 (MOLT-4): 4.08 µM (inactive); GI50 (OVCAR-8): 1.37 µM (inactive); GI50 (HOP-92): 3.53 µM (inactive); GI50 (UACC-62): 1.28 µM (inactive); GI50 (RXF 393): 0.695 µM (active); GI50 (M14): 1.7 µM (inactive); GI50 (COLO 205): 1.92 µM (inactive); GI50 (IGROV-1): 1.75 µM (inactive); GI50 (BT-549): 1.54 µM (inactive); GI50 (UO-31): 1.24 µM (inactive); GI50 (TK-10): 2.38 µM (inactive); GI50 (RPMI-8226): 0.489 µM (active); GI50 (CCRF-CEM): 2.08 µM (inactive); GI50 (OVCAR-3): 0.624 µM (active); GI50 (SNB-19): 1.38 µM (inactive); GI50 (LOX IMVI): 1.78 µM (inactive); GI50 (NCI-H226): 10.1 µM (inactive); GI50 (HT-29): 0.701 µM (active)

`CC#CCOC(=O)c1ccccc1OC(C)=O` was tested. Which GI50 (Hs-578T) did it give?
Its GI50 is > 100 µM (inactive).

And the GI50 (NCI-H23)?
The GI50 was > 100 µM (inactive).

And the GI50 (MOLT-4)?
The GI50 was > 100 µM (inactive).

What about the GI50 (OVCAR-8) of the same molecule?
Its GI50 is > 100 µM (inactive).

What about the GI50 (HOP-92) of the same molecule?
The GI50 was > 100 µM (inactive).

And the GI50 (UACC-62)?
Its GI50 is > 100 µM (inactive).

What about the GI50 (RXF 393) of the same molecule?
The GI50 was > 100 µM (inactive).

And the GI50 (M14)?
Its GI50 is > 100 µM (inactive).

And the GI50 (COLO 205)?
Its GI50 is > 100 µM (inactive).

And the GI50 (IGROV-1)?
Its GI50 is > 100 µM (inactive).

What about the GI50 (BT-549) of the same molecule?
The GI50 was > 100 µM (inactive).

And the GI50 (UO-31)?
The GI50 was > 100 µM (inactive).

And the GI50 (TK-10)?
The GI50 was > 100 µM (inactive).

And the GI50 (RPMI-8226)?
The GI50 was > 100 µM (inactive).

And the GI50 (CCRF-CEM)?
Its GI50 is > 100 µM (inactive).

What about the GI50 (SNB-19) of the same molecule?
Its GI50 is > 100 µM (inactive).

What about the GI50 (LOX IMVI) of the same molecule?
Its GI50 is > 100 µM (inactive).

What about the GI50 (NCI-H226) of the same molecule?
The GI50 was > 100 µM (inactive).
